Results as given in US8617906B2, “Identification and screening of triptolide target molecules” (priority 2004, dated 2013).

How the values were obtained:
[1] = target: T1, hypothetical protein FLJ20297 (PG777) (Homo sapiens, UniProt Q9NXE4); experiment: Isolation of proteins binding 3H-triptolide in Jurkat cells; conditions: 3H-labeled Jurkat cell extract
T1 construct: endogenous in cells; host or cells: Jurkat
Experimental: (§1) Triptolide target molecules were isolated and identified by purification and identification of molecules that bind ^3H-triptolide. Jurkat cells from expanding cultures were labeled with ^3H-triptolide by cultivation at 37° C. with 5% CO2 for a period of time between a few hours and overnight (usually 6-7 hours) and harvested by centrifugation and washing in ice-cold phosphate buffered saline. The cells (usually 1-3×10^6/ml) were generally labeled with ^3H-triptolide to a final concentration of 35 nM (100 μCi/200 ml of medium). Collected cell pellets were pooled, and the cells were either extracted and subjected to separation and purification at that time, or were frozen and stored at −20° C. as pellets for extraction and investigation at a later time.
(§2) The cells were extracted with M-per buffer (Pierce) and homogenized in presence of a protease inhibitor cocktail, sometimes including other reagents such as deoxyribonuclease (DNase). […] When the extracts components were found not to be sufficiently purified, enriched or reduced in number, 2D gel electrophoresis was employed, followed by fluorography for ^3H-associated radioactivity detection, and MALDI/MS of the corresponding peptides (after proteolysis) and peptide fingerprinting. […]

L-plastin (PG772) = target: T2, L-plastin (PG772) (Homo sapiens, UniProt P13796); experiment: as above; conditions: 3H-labeled compound incubated with Jurkat cells
T2 construct: Jurkat cells from expanding cultures were labeled with; endogenous in cells; host or cells: Jurkat
Experimental: as §1, with “Collected cell pellets were pooled, and the cells were either extracted and subjected to separation and purification at that time, or were frozen and stored at −20° C. as pellets for extraction and investigation at a later time.” left out
as §2
MALDI-MS peptide fingerprinting analysis identified HSP 90β (PG771) in fraction #4 and L-plastin (PG772) in fraction #9. […] A positive spot on the film (fluorographically positive, therefore positive for ^3H-associated radioactivity) was seen near the 29 kDa protein marker. […]

T2 sequence (P13796 whole entry): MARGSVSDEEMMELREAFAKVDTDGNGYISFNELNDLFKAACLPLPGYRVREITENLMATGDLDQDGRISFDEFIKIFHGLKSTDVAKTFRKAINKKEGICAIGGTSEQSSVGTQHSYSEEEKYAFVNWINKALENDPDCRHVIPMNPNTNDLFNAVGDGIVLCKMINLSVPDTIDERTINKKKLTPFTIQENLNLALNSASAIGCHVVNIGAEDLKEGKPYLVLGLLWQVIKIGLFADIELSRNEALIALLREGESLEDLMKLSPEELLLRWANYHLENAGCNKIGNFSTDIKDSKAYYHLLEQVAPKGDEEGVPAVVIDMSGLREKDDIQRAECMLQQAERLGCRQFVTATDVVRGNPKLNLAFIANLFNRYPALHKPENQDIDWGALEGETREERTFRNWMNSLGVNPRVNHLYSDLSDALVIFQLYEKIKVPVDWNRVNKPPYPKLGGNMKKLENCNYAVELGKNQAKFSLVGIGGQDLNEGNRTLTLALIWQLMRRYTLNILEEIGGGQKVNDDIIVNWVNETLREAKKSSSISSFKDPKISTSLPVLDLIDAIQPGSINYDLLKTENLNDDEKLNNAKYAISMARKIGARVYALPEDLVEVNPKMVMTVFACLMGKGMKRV
T1 sequence (Q9NXE4 whole entry): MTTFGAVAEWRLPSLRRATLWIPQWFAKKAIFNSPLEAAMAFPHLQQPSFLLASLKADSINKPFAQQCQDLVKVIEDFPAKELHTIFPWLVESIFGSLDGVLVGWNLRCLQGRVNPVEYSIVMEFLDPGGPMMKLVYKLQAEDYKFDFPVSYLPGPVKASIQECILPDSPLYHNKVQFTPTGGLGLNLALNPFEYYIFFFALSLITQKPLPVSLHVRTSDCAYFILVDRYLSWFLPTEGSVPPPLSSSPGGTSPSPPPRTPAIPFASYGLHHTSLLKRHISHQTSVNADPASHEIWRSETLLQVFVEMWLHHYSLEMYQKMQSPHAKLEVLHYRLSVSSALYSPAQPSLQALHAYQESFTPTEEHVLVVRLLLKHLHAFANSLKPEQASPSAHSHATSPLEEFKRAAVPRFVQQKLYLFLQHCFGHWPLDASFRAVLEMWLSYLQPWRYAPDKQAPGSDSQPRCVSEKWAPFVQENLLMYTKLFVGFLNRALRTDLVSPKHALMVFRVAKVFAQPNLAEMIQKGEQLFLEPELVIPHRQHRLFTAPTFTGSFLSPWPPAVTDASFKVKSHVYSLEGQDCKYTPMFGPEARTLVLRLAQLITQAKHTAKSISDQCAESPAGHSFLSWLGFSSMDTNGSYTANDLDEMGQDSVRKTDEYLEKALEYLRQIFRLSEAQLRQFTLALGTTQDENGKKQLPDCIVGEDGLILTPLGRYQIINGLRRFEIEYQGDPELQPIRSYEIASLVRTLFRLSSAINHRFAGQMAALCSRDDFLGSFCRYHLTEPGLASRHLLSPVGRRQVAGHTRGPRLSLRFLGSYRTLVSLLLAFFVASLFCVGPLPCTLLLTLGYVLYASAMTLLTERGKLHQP

CC(C)[C@]12O[C@H]1[C@@H]1O[C@]13[C@]1(O[C@H]1C[C@H]1C4=C(CC[C@@]13C)C(=O)OC4)[C@@H]2O [triptolide]
3H-associated protein identified as triptolide target: FLJ20297 [1]: identification | 3H-associated protein identified as triptolide target: L-plastin (L-plastin (PG772)): identified
